In PubChem BioAssay (NCI):
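GI50 = concentration required for 50% inhibition of growth. At the TGI there is no net growth.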

What was measured:
Experiment in all cases: growth of human tumour cells (NCI), 384-well format
SK-MEL-2 melanoma = test system: SK-MEL-2 melanoma
NCI-H322M lung = test system: NCI-H322M lung
M14 melanoma = test system: M14 melanoma
SF-268 CNS = test system: SF-268 CNS
SN12C renal = test system: SN12C renal
NCI/ADR-RES ovarian = test system: NCI/ADR-RES ovarian
CAKI-1 renal = test system: CAKI-1 renal
NCI-H23 lung = test system: NCI-H23 lung
UACC-62 melanoma = test system: UACC-62 melanoma
ACHN renal = test system: ACHN renal
UO-31 renal = test system: UO-31 renal
A549 NSCLC = test system: A549 NSCLC
NCI-H226 lung = test system: NCI-H226 lung
SF-539 CNS = test system: SF-539 CNS
HCT-116 colon = test system: HCT-116 colon
LOX IMVI melanoma = test system: LOX IMVI melanoma
BT-549 breast = test system: BT-549 breast
IGROV1 ovarian = test system: IGROV1 ovarian
RPMI-8226 leukemia = test system: RPMI-8226 leukemia
HOP-62 NSCLC = test system: HOP-62 NSCLC
OVCAR-8 ovarian = test system: OVCAR-8 ovarian
T-47D breast = test system: T-47D breast
786-0 renal = test system: 786-0 renal
HS 578T breast = test system: HS 578T breast
OVCAR-3 ovarian = test system: OVCAR-3 ovarian
K-562 leukemia = test system: K-562 leukemia
DU-145 prostate = test system: DU-145 prostate
A498 renal = test system: A498 renal
PC-3 prostate = test system: PC-3 prostate
SW-620 colon = test system: SW-620 colon
HOP-92 NSCLC = test system: HOP-92 NSCLC
SNB-19 CNS = test system: SNB-19 CNS
MALME-3M melanoma = test system: MALME-3M melanoma
MOLT-4 leukemia = test system: MOLT-4 leukemia
HT29 colon = test system: HT29 colon
MDA-MB-435 melanoma = test system: MDA-MB-435 melanoma
MDA-MB-231 breast = test system: MDA-MB-231 breast
UACC-257 melanoma = test system: UACC-257 melanoma
NCI-H522 lung = test system: NCI-H522 lung
TK-10 renal = test system: TK-10 renal
CCRF-CEM leukemia = test system: CCRF-CEM leukemia
HL-60(TB) leukemia = test system: HL-60(TB) leukemia
HCT-15 colon = test system: HCT-15 colon
RXF 393 renal = test system: RXF 393 renal
SK-MEL-28 melanoma = test system: SK-MEL-28 melanoma
EKVX NSCLC = test system: EKVX NSCLC
SF-295 CNS = test system: SF-295 CNS
SK-OV-3 ovarian = test system: SK-OV-3 ovarian
KM12 colon = test system: KM12 colon
OVCAR-4 ovarian = test system: OVCAR-4 ovarian
U251 glioblastoma = test system: U251 glioblastoma
OVCAR-5 ovarian = test system: OVCAR-5 ovarian
MDA-MB-468 breast = test system: MDA-MB-468 breast
SNB-75 CNS = test system: SNB-75 CNS
MCF7 breast = test system: MCF7 breast

CC(=O)O[C@]1(C(C)=O)CC[C@H]2[C@@H]3C=C(C)C4=CC(=O)CC[C@]4(C)[C@H]3CC[C@@]21C
GI50 (SK-MEL-2 melanoma): > 100 µM
TGI (SK-MEL-2 melanoma): > 100 µM
GI50 (NCI-H322M lung): > 100 µM
TGI (NCI-H322M lung): > 100 µM
GI50 (M14 melanoma): 76.3 µM
TGI (M14 melanoma): > 100 µM
GI50 (SF-268 CNS): > 100 µM
TGI (SF-268 CNS): > 100 µM
GI50 (SN12C renal): > 100 µM
TGI (SN12C renal): > 100 µM
GI50 (NCI/ADR-RES ovarian): > 100 µM
TGI (NCI/ADR-RES ovarian): > 100 µM
GI50 (CAKI-1 renal): > 100 µM
TGI (CAKI-1 renal): > 100 µM
GI50 (NCI-H23 lung): > 100 µM
TGI (NCI-H23 lung): > 100 µM
GI50 (UACC-62 melanoma): > 100 µM
TGI (UACC-62 melanoma): > 100 µM
GI50 (ACHN renal): > 100 µM
TGI (ACHN renal): > 100 µM
GI50 (UO-31 renal): > 100 µM
TGI (UO-31 renal): > 100 µM
GI50 (A549 NSCLC): > 100 µM
TGI (A549 NSCLC): > 100 µM
GI50 (NCI-H226 lung): > 100 µM
TGI (NCI-H226 lung): > 100 µM
GI50 (SF-539 CNS): > 100 µM
TGI (SF-539 CNS): > 100 µM
GI50 (HCT-116 colon): 70.7 µM
TGI (HCT-116 colon): > 100 µM
GI50 (LOX IMVI melanoma): > 100 µM
TGI (LOX IMVI melanoma): > 100 µM
GI50 (BT-549 breast): > 100 µM
TGI (BT-549 breast): > 100 µM
GI50 (IGROV1 ovarian): > 100 µM
TGI (IGROV1 ovarian): > 100 µM
GI50 (RPMI-8226 leukemia): 11.5 µM
TGI (RPMI-8226 leukemia): 28.1 µM
GI50 (HOP-62 NSCLC): > 100 µM
TGI (HOP-62 NSCLC): > 100 µM
GI50 (OVCAR-8 ovarian): > 100 µM
TGI (OVCAR-8 ovarian): > 100 µM
GI50 (T-47D breast): > 100 µM
TGI (T-47D breast): > 100 µM
GI50 ([…]-0 renal): > 100 µM
TGI (786-0 renal): > 100 µM
GI50 (HS 578T breast): > 100 µM
TGI (HS 578T breast): > 100 µM
GI50 (OVCAR-3 ovarian): > 100 µM
TGI (OVCAR-3 ovarian): > 100 µM
GI50 (K-562 leukemia): 20.5 µM
TGI (K-562 leukemia): 41.7 µM
GI50 (DU-145 prostate): > 100 µM
TGI (DU-145 prostate): > 100 µM
GI50 (A498 renal): > 100 µM
TGI (A498 renal): > 100 µM
GI50 (PC-3 prostate): 74.7 µM
TGI (PC-3 prostate): > 100 µM
GI50 (SW-620 colon): > 100 µM
TGI (SW-620 colon): > 100 µM
GI50 (HOP-92 NSCLC): > 100 µM
TGI (HOP-92 NSCLC): > 100 µM
GI50 (SNB-19 CNS): > 100 µM
TGI (SNB-19 CNS): > 100 µM
GI50 (MALME-3M melanoma): > 100 µM
TGI (MALME-3M melanoma): > 100 µM
GI50 (MOLT-4 leukemia): 14.1 µM
TGI (MOLT-4 leukemia): 29.3 µM
GI50 (HT29 colon): > 100 µM
TGI (HT29 colon): > 100 µM
GI50 (MDA-MB-435 melanoma): > 100 µM
TGI (MDA-MB-435 melanoma): > 100 µM
GI50 (MDA-MB-231 breast): > 100 µM
TGI (MDA-MB-231 breast): > 100 µM
GI50 (UACC-257 melanoma): > 100 µM
TGI (UACC-257 melanoma): > 100 µM
GI50 (NCI-H522 lung): > 100 µM
TGI (NCI-H522 lung): > 100 µM
GI50 (TK-10 renal): > 100 µM
TGI (TK-10 renal): > 100 µM
GI50 (CCRF-CEM leukemia): 18.6 µM
TGI (CCRF-CEM leukemia): 32.9 µM
GI50 (HL-60(TB) leukemia): 10.5 µM
TGI (HL-60(TB) leukemia): 22.5 µM
GI50 (HCT-15 colon): > 100 µM
TGI (HCT-15 colon): > 100 µM
GI50 (RXF 393 renal): > 100 µM
TGI (RXF 393 renal): > 100 µM
GI50 (SK-MEL-28 melanoma): > 100 µM
TGI (SK-MEL-28 melanoma): > 100 µM
GI50 (EKVX NSCLC): > 100 µM
TGI (EKVX NSCLC): > 100 µM
GI50 (SF-295 CNS): > 100 µM
TGI (SF-295 CNS): > 100 µM
GI50 (SK-OV-3 ovarian): > 100 µM
TGI (SK-OV-3 ovarian): > 100 µM
GI50 (KM12 colon): > 100 µM
TGI (KM12 colon): > 100 µM
GI50 (OVCAR-4 ovarian): > 100 µM
TGI (OVCAR-4 ovarian): > 100 µM
GI50 (U251 glioblastoma): > 100 µM
TGI (U251 glioblastoma): > 100 µM
GI50 (OVCAR-5 ovarian): > 100 µM
TGI (OVCAR-5 ovarian): > 100 µM
GI50 (MDA-MB-468 breast): 44.1 µM
TGI (MDA-MB-468 breast): > 100 µM
GI50 (SNB-75 CNS): > 100 µM
TGI (SNB-75 CNS): > 100 µM
GI50 (MCF7 breast): > 100 µM
TGI (MCF7 breast): > 100 µM
